Laboratory results reported in the NIST ThermoML archive (doi:10.1016/j.jct.2016.07.008).

Experiment: xn = mol fraction of the nth substance listed
Conditions: Liquid, Vibrating wire viscometry

Cc1ccc(C)c(C)c1 [1,2,4-trimethylbenzene] + CCCCO
viscosity [mPa·s]
Conditions	293.15 K	313.15 K	333.15 K	353.15 K
100 kPa, x2 = 0.2999	1.004	0.7478	0.5848	0.4547
100 kPa, x2 = 0.5289	1.227	0.8685	0.6443	0.495
100 kPa, x2 = 0.7991	1.959	1.254	0.8537	0.6105
1000 kPa, x2 = 0.2999	1.019	0.7546	0.5927	0.4576
1000 kPa, x2 = 0.5289	1.228	0.8775	0.6496	0.4993
1000 kPa, x2 = 0.7991	1.977	1.271	0.8605	0.618
5000 kPa, x2 = 0.2999	1.066	0.7792	0.6096	0.4793
5000 kPa, x2 = 0.5289	1.29	0.9012	0.6816	0.5174
5000 kPa, x2 = 0.7991	2.057	1.332	0.8976	0.6396
10000 kPa, x2 = 0.2999	1.104	0.8286	0.6356	0.4978
10000 kPa, x2 = 0.5289	1.348	0.9526	0.7029	0.5381
10000 kPa, x2 = 0.7991	2.177	1.385	0.94	0.667
20000 kPa, x2 = 0.2999	1.197	0.8853	0.6805	0.5414
20000 kPa, x2 = 0.5289	1.462	1.029	0.753	0.5739
20000 kPa, x2 = 0.7991	2.381	1.506	1.026	0.7229
30000 kPa, x2 = 0.2999	1.292	0.9596	0.7326	0.577
30000 kPa, x2 = 0.5289	1.588	1.116	0.8089	0.6155
30000 kPa, x2 = 0.7991	2.563	1.645	1.107	0.7805
40000 kPa, x2 = 0.2999	1.391	1.025	0.7951	0.6166
40000 kPa, x2 = 0.5289	1.73	1.201	0.8688	0.6521
40000 kPa, x2 = 0.7991	2.757	1.759	1.197	0.8397
50000 kPa, x2 = 0.2999	1.516	1.105	0.8476	0.659
50000 kPa, x2 = 0.5289	1.87	1.293	0.9271	0.6945
50000 kPa, x2 = 0.7991	2.995	1.921	1.282	0.9004
60000 kPa, x2 = 0.2999	1.65	1.181	0.906	0.7031
60000 kPa, x2 = 0.5289	2.031	1.402	0.9904	0.7392
60000 kPa, x2 = 0.7991	3.241	2.046	1.379	0.9627
70000 kPa, x2 = 0.2999	1.804	1.271	0.9707	0.7463
70000 kPa, x2 = 0.5289	2.196	1.492	1.059	0.7855
70000 kPa, x2 = 0.7991	3.481	2.187	1.466	1.026
80000 kPa, x2 = 0.2999	1.938	1.357	1.03	0.7895
80000 kPa, x2 = 0.5289	2.401	1.612	1.131	0.8338
80000 kPa, x2 = 0.7991	3.754	2.342	1.577	1.092
100000 kPa, x2 = 0.2999	2.236	1.531	1.177	0.8968
100000 kPa, x2 = 0.5289	2.773	1.821	1.295	0.9482
100000 kPa, x2 = 0.7991	4.289	2.65	1.771	1.226
120000 kPa, x2 = 0.2999	2.578	1.753	1.308	0.997
120000 kPa, x2 = 0.5289	3.261	2.065	1.453	1.062
120000 kPa, x2 = 0.7991	4.849	2.995	1.945	1.367
140000 kPa, x2 = 0.2999	2.956	1.969	1.447	1.117
140000 kPa, x2 = 0.5289	3.719	2.367	1.615	1.194
140000 kPa, x2 = 0.7991	5.47	3.336	2.135	1.512

CCCCO [butan-1-ol] + CC(C)CC(C)(C)C
viscosity [mPa·s], x1 = 1
Conditions	293.15 K	298.15 K	313.15 K	323.15 K	333.15 K	348.15 K	353.15 K
100 kPa	2.969	2.601	1.797	1.429	1.156	0.8579	0.7903
1000 kPa	3.001	2.622	1.813	1.44	1.172	0.8647	0.7943
5000 kPa	3.108	2.715	1.89	1.491	1.227	0.8956	0.8284
10000 kPa	3.244	2.834	1.967	1.556	1.29	0.9349	0.8637
20000 kPa	3.479	3.079	2.14	1.69	1.389	1.016	0.9473
30000 kPa	3.788	3.333	2.319	1.829	1.504	1.101	1.04
40000 kPa	4.078	3.599	2.48	1.975	1.624	1.189	1.102
50000 kPa	4.401	3.874	2.629	2.125	1.741	1.28	1.21
60000 kPa	4.74	4.16	2.852	2.281	1.867	1.375	1.295
70000 kPa	5.076	4.455	3.089	2.443	2.014	1.473	1.384
80000 kPa	5.438	4.761	3.247	2.61	2.137	1.575	1.473
100000 kPa	6.164	5.404	3.686	2.962	2.384	1.788	1.676
120000 kPa	6.979	6.087	4.192	3.335	2.633	2.015	1.857
140000 kPa	7.843	6.811	4.638	3.682	2.883	2.255	2.037

CC(C)CC(C)(C)C [2,2,4-trimethylpentane] + CCCCO
viscosity [mPa·s]
Conditions	293.15 K	313.15 K	333.15 K	353.15 K
100 kPa, x2 = 0.3002	0.651	0.4938	0.3855	0.3085
100 kPa, x2 = 0.5003	0.8986	0.6427	0.4739	0.3658
100 kPa, x2 = 0.8	1.777	1.151	0.7766	0.5523
1000 kPa, x2 = 0.3002	0.6579	0.4951	0.3922	0.3131
1000 kPa, x2 = 0.5003	0.9064	0.6458	0.4756	0.3715
1000 kPa, x2 = 0.8	1.805	1.161	0.7891	0.5621
5000 kPa, x2 = 0.3002	0.6912	0.5303	0.4188	0.3362
5000 kPa, x2 = 0.5003	0.9556	0.6742	0.5003	0.3955
5000 kPa, x2 = 0.8	1.837	1.216	0.8182	0.5811
10000 kPa, x2 = 0.3002	0.7318	0.5681	0.4439	0.3574
10000 kPa, x2 = 0.5003	0.9979	0.7086	0.5334	0.4195
10000 kPa, x2 = 0.8	1.949	1.279	0.868	0.6183
20000 kPa, x2 = 0.3002	0.8168	0.6344	0.4973	0.3982
20000 kPa, x2 = 0.5003	1.14	0.8024	0.5894	0.4654
20000 kPa, x2 = 0.8	2.161	1.402	0.9602	0.6708
30000 kPa, x2 = 0.3002	0.9098	0.7073	0.552	0.4475
30000 kPa, x2 = 0.5003	1.274	0.8924	0.6494	0.5151
30000 kPa, x2 = 0.8	2.353	1.54	1.04	0.7334
40000 kPa, x2 = 0.3002	1.004	0.7728	0.6073	0.491
40000 kPa, x2 = 0.5003	1.415	0.9864	0.7134	0.5714
40000 kPa, x2 = 0.8	2.578	1.674	1.132	0.793
50000 kPa, x2 = 0.3002	1.108	0.8419	0.6677	0.5403
50000 kPa, x2 = 0.5003	1.562	1.084	0.7814	0.6195
50000 kPa, x2 = 0.8	2.826	1.825	1.232	0.8609
60000 kPa, x2 = 0.3002	1.215	0.9375	0.7297	0.592
60000 kPa, x2 = 0.5003	1.739	1.186	0.8534	0.679
60000 kPa, x2 = 0.8	3.038	1.972	1.328	0.9278
70000 kPa, x2 = 0.3002	1.324	1.005	0.7944	0.6322
70000 kPa, x2 = 0.5003	1.895	1.292	0.9294	0.7319
70000 kPa, x2 = 0.8	3.308	2.114	1.419	0.9984
80000 kPa, x2 = 0.3002	1.433	1.081	0.857	0.6788
80000 kPa, x2 = 0.5003	2.055	1.402	1.009	0.7953
80000 kPa, x2 = 0.8	3.537	2.283	1.531	1.069
100000 kPa, x2 = 0.3002	1.679	1.235	0.9892	0.7915
100000 kPa, x2 = 0.5003	2.387	1.634	1.181	0.9151
100000 kPa, x2 = 0.8	4.066	2.619	1.735	1.203
120000 kPa, x2 = 0.3002	1.942	1.413	1.133	0.8951
120000 kPa, x2 = 0.5003	2.735	1.882	1.369	1.026
120000 kPa, x2 = 0.8	4.653	2.954	1.973	1.365
140000 kPa, x2 = 0.3002	2.211	1.587	1.279	1.007
140000 kPa, x2 = 0.5003	3.099	2.146	1.573	1.14
140000 kPa, x2 = 0.8	5.322	3.328	2.212	1.526
